# Measured values taken from patent US20150110853A1, “TREATMENT OF RADICAL PROSTATECTOMY-INDUCED ERECTILE DYSFUNCTION” (PANACEA PHARMACEUTICALS, priority 2013, published 2015).
# Experiments:
# [1] = tested on: cultured neuronal cells; assay type: cell-based
# Description: (§1) PAN-811 was originally developed for cancer therapy due to its ability to inhibit ribonucleotide reductase, a key enzyme required for DNA synthesis. […] PAN-811 was administered intracerebroventricularly (i.c.v.) at a dose of 50 μg per rat at 1 h after arterial occlusion. […] The effect of a single intravenous (i. v.) bolus injection of PAN-811 was also investigated. […] Mechanistically PAN-811 prevents glutamate-induced excitatory cytotoxicity, veratridine-induced sodium channel opening and related cell death, and staurosporine-induced apoptosis. […] In culture, ischemic condition results in a 19-fold increase in intracellular free calcium. PAN-811 at a dose of 5 μM reduced this elevated level by 72%. […] In addition, PAN-811 effectively suppresses oxidative stress in many ways. […] Importantly, PAN-811 manifested as a free radical scavenger in a cell free system where PAN-811 reduced 500 μM of a stable free radical diphenylpicrylhydrazyl by 70%. Taken together, PAN-811 has manifested as a potent neuroprotectant with dual drug targets—oxidative stress and free calcium.
# [2] = tested on: veratridine-induced sodium channel opening; assay: veratridine-induced sodium channel opening and related cell death; assay type: cell-based
# Description: as §1
# [3] = tested on: staurosporine-induced apoptosis; assay: staurosporine-induced apoptosis; assay type: cell-based
# Description: as §1
# [4] = tested on: human Alzheimer's disease-derived and age-matched olfactory neuroepithelial cells; assay: oxidative stress-induced cell death of olfactory neuroepithelial cells; assay type: cell-based; details: via suppression of intracellular reactive oxygen species
# Description: as §1
# [5] = tested on: ischemic neurodegeneration; details: 0.45 μM; cited from earlier work
# [6] = tested on: hypoxia-induced neuronal cell death; details: 1.2μM; cited from earlier work
# [7] = target: T1, ribonucleotide reductase (Homo sapiens, UniProt P31350); details: cited from earlier work
# T1 sequence (P31350 1-389): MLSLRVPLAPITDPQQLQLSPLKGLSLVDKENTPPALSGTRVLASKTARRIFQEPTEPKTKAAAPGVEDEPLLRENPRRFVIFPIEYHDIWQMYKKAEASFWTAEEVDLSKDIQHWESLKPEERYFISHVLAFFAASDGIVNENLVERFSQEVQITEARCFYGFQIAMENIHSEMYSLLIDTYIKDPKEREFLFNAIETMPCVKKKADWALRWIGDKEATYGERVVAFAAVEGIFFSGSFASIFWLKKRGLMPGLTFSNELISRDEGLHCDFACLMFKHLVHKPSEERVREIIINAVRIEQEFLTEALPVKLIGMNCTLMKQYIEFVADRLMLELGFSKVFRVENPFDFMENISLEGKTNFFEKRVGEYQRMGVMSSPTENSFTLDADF
# T1 sequence (P23921 1-792 partner): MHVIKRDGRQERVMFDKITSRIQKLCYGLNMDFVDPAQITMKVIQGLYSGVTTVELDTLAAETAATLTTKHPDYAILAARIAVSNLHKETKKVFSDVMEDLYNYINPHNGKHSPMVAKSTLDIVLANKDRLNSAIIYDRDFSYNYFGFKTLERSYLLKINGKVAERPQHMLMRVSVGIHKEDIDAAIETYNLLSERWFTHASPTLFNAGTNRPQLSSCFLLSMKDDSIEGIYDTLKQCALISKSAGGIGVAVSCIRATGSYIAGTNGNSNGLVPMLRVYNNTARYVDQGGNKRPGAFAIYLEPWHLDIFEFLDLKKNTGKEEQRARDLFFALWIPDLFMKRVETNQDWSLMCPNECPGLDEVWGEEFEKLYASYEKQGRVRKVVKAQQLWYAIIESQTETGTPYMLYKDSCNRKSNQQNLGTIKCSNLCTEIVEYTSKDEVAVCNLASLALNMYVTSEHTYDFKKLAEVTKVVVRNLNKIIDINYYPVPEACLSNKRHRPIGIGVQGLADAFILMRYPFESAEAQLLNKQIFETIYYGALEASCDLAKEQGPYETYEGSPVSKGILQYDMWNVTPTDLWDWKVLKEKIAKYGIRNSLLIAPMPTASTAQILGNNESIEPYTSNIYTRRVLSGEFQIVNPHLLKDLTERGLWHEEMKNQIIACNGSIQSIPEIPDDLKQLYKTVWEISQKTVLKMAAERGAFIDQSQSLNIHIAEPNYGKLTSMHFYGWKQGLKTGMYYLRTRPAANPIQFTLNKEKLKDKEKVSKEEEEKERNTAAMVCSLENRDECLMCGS
smiles,measurement,setting,value
"NC(=S)N/N=C/c1ncccc1N [PAN-811, 3-aminopyridine-2-carboxaldehyde thiosemicarbazone]",prevention of glutamate-induced excitatory cytotoxicity,[1],prevents
same,prevention of veratridine-induced sodium channel opening and related cell death,[2],prevents
same,prevention of staurosporine-induced apoptosis,[3],prevents
same,inhibition of oxidative stress-induced cell death,[4],inhibited
same,block of ischemic neurodegeneration,[5],fully blocked
same,halt of hypoxia-induced neuronal cell death,[6],completely halted
same,inhibition of ribonucleotide reductase,[7],inhibit
